Like-named read-outs stand apart in the source and are kept apart here. A value given as a limit tells only on which side of the number the result lay.

From patent publication US20240199623A1 (ILDONG PHARMACEUTICAL CO., LTD., priority 2020, published 2024) come the findings set out here.

Series [1] addresses T1, human wild type-CFTR (Homo sapiens, UniProt P13569). The series can be described thus: Short-circuit current measurement. Further details: expressed in transfected cells. To be noted: FRT cells expressing human wild type-CFTR; Forskolin 20 μM signal used as 100% activity; read-out: Short-circuit current measurement (EC50) Concentration range. In kind it is cell-based. Put shortly: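 FRT monolayers stably carrying human wild-type CFTR were mounted in Ussing chambers; forskolin, compounds and the inhibitor CFTRinh-172 went to apical and basolateral sides. Read-outs were apical membrane current and short-circuit current, recorded at 4 Hz.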

Series [2] concerns the target T2, Human recombinant PDE4C1 (Homo sapiens, UniProt Q08493).
T2 construct: purchased BPS Bioscience; host or cells: insect Sf9 cells
The series can be described thus: Human phosphodiesterase 4 (PDE4) inhibition, PDE4C1. To be noted: read-out: % inhibition range at 10 uM PDE4C1. It counts as biochemical. The procedure:
(§1) […] Human recombinant PDE4A1A, PDE4B 1, PDE4C1 and PDE4D2 are respectively expressed in each host cell (insect Sf9 cells, BPS Bioscience). Preincubation of 10 μM test compounds or vehicle was proceeded with 20 ng/ml PDE4A1A or 4 ng/ml PDE4B 1 or 8 ng/ml PDE4C1 or 5 ng/ml PDE4D2 enzyme in Tris-HCl buffer pH 7.2 for 15 minutes at 25° C. 100 nM fluorescein (FAM) labeled cAMP for another 30 minutes incubation period was added in order to initiate the enzymatic reaction and addition of IMAP binding solution was followed for its termination. Specifically, IMAP complexes with phosphate groups on nucleotide monophosphate generated from cyclic nucleotides through PDE activity. The amount of complex formed is determined by reading spectrofluorimetrical signal at 470 nm/525 nm.

The target of series [3] is T1, human wild type-CFTR. Nature of the series: Cell-based YFP assay. Also noted: expressed in transfected cells; host or cells: CHO-K1 (Chinese hamster ovary). The note with it: CHO-K1 cells expressing human wild type-CFTR and YFP-H148Q/I152L; forskolin 20 μM = 100% activity; read-out: Cell-based YFP Assay (EC50) Concentration Range. Put shortly: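 I⁻-driven YFP fluorescence quenching at 37 °C: 2 s baseline, addition of 140 mM iodide solution, then 14 s of readings at 0.4 s intervals. Cells were CHO-K1 expressing human wild-type CFTR plus YFP-H148Q/I152L. EC50 derived from averaged triplicates.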

A short description of series [4]: Phosphate-buffered saline (PBS) solubility of compounds. The note with it: aqueous buffer, thermodynamic from solid, PBS pH 7.5, 0.5 mg/mL, vortexed 90 min, filtered, LC-MS/MS, read-out: Solubility Range. It counts as physicochemical. The procedure: PBS solutions (pH 7.5) were prepared according to the following compositions and stored at 4° C. Test compounds were dissolved in PBS (pH 7.5) at 0.5 mg/mL and vortexed for 90 min. The PBS solution was sequentially filtered through a 0.45, 1.2, […] syringe filter. Concentration of test compounds were determined using LC-MS/MS with appropriate dilution of the samples.

In series [5] the target is T3, Human recombinant PDE4B 1 (Homo sapiens, UniProt Q07343).
T3 construct: purchased BPS Bioscience; host or cells: insect Sf9 cells
T3 sequence (Q07343 whole entry): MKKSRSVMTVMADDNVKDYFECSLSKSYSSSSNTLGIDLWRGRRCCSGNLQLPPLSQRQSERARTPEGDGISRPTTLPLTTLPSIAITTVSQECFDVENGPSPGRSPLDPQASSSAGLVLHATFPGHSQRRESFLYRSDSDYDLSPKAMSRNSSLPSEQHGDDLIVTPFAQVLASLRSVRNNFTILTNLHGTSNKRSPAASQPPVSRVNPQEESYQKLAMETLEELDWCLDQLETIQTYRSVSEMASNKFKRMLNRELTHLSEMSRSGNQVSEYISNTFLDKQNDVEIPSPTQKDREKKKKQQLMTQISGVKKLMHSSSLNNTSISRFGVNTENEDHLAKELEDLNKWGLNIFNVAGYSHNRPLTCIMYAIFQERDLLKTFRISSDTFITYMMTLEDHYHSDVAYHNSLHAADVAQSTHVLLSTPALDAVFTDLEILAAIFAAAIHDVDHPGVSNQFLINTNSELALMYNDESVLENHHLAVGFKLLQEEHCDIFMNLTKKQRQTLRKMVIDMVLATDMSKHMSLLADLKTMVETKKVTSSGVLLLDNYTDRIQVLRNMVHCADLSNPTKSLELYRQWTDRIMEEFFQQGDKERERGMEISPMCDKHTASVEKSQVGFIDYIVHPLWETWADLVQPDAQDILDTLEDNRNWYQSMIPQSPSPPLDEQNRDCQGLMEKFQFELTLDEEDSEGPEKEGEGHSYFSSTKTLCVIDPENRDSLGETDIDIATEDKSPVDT
The series can be described thus: Human phosphodiesterase 4 (PDE4) inhibition, PDE4B 1. In kind it is biochemical. To be noted: read-out: % inhibition range at 10 uM PDE4B1. The procedure:
as §1

Series [6] has as its target T4, Human recombinant PDE4A1A (Homo sapiens, UniProt P27815).
T4 construct: purchased BPS Bioscience; host or cells: insect Sf9 cells
Nature of the series: Human phosphodiesterase 4 (PDE4) inhibition, PDE4A1A. In kind it is biochemical. To be noted: read-out: % inhibition range at 10 uM PDE4A1A. The procedure: as §1

The target in series [7] is T5, Human recombinant PDE4D2 (Homo sapiens, UniProt Q08499).
T5 construct: purchased BPS Bioscience; host or cells: insect Sf9 cells
T5 sequence (Q08499 303-809 limits assumed): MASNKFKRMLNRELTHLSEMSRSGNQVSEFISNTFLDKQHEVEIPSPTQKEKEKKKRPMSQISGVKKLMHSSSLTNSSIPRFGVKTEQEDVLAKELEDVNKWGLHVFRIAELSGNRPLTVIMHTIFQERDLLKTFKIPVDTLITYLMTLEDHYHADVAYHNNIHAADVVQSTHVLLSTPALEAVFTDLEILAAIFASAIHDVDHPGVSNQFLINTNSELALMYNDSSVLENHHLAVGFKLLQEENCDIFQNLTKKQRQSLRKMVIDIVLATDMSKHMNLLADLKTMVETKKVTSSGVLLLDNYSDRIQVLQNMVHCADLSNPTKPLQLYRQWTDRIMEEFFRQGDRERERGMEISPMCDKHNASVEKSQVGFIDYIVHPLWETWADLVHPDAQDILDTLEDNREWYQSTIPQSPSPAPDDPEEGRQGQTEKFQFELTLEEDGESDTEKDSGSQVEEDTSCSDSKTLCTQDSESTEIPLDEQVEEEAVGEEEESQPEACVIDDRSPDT
The series can be described thus: Human phosphodiesterase 4 (PDE4) inhibition, PDE4D2. It counts as biochemical. To be noted: read-out: % inhibition range at 10 uM PDE4D2. The procedure:
as §1

For series [8], the system named is C57BL/6 female mice. The series can be described thus: Scopolamine induced tear volume reduction model. It counts as in vivo, mouse. To be noted: scopolamine-injected mice, ophthalmic solution topically on both eyes 3 times a day, phenol red thread; average if evaluated twice. The procedure: Seven-week old C57BL/6 female mice were used.
Scopolamine hydrobromide was purchased from Sigma Aldrich (Cat No. S0929), dissolved in saline, and sterilized prior to use.
Zone-Quick phenol red thread was obtained from Menicon.
The test compounds used in this experiment were dissolved in PBS containing 1% of surfactant.
Scopolamine (0.2 ml of 2.5 mg/mL solution) was injected subcutaneously 3 times a day to induce a decrease in the tear volume in the mouse. At the same time, the ophthalmic solution of test compounds or vehicle were topically administered onto both eyes 3 times a day. Tear volume was measured by phenol red thread before dosing (basal level) and 1 hour after the last administration of scopolamine and ophthalmic solution. The results were obtained by measuring the length of the phenol red thread turning red by tears. The schedule of study is expressed as FIG. 1.
If the test compound was evaluated twice, the average value was used.

T2 sequence (Q08493 whole entry): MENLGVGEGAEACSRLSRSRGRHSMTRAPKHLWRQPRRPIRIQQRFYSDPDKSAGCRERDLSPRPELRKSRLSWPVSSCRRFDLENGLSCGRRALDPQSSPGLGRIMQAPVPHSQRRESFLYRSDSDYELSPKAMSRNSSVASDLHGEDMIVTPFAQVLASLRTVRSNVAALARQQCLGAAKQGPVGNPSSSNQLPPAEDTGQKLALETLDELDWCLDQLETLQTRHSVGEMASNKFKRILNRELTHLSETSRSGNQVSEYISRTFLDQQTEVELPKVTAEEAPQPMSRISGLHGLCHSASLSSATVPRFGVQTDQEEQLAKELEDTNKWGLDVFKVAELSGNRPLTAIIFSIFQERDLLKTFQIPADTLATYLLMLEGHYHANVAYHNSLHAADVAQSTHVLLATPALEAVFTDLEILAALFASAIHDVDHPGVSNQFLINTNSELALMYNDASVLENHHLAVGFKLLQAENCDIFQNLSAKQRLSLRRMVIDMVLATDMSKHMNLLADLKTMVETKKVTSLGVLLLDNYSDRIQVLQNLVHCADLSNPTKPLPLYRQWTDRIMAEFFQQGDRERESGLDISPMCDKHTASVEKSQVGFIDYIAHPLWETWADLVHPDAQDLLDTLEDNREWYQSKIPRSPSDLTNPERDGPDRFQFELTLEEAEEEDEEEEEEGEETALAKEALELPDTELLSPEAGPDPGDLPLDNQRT
T4 sequence (P27815 1-647 isoform P27815-4): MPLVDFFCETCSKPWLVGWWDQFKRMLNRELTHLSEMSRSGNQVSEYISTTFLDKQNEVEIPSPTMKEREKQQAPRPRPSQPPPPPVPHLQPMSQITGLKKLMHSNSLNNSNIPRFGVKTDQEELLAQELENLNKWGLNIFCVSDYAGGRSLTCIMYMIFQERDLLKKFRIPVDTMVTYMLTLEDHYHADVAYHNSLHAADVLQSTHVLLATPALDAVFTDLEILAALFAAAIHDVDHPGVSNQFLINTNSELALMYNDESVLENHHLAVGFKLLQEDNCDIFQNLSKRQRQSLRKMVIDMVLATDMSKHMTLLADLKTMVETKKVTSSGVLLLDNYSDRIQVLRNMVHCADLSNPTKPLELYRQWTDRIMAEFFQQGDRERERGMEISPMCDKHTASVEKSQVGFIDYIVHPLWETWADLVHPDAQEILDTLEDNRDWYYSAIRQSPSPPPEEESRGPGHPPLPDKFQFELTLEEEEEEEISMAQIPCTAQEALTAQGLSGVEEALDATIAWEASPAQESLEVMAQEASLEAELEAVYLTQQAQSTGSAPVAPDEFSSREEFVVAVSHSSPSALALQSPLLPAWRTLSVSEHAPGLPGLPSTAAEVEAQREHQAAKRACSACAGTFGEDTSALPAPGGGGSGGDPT
T1 sequence (P13569 whole entry): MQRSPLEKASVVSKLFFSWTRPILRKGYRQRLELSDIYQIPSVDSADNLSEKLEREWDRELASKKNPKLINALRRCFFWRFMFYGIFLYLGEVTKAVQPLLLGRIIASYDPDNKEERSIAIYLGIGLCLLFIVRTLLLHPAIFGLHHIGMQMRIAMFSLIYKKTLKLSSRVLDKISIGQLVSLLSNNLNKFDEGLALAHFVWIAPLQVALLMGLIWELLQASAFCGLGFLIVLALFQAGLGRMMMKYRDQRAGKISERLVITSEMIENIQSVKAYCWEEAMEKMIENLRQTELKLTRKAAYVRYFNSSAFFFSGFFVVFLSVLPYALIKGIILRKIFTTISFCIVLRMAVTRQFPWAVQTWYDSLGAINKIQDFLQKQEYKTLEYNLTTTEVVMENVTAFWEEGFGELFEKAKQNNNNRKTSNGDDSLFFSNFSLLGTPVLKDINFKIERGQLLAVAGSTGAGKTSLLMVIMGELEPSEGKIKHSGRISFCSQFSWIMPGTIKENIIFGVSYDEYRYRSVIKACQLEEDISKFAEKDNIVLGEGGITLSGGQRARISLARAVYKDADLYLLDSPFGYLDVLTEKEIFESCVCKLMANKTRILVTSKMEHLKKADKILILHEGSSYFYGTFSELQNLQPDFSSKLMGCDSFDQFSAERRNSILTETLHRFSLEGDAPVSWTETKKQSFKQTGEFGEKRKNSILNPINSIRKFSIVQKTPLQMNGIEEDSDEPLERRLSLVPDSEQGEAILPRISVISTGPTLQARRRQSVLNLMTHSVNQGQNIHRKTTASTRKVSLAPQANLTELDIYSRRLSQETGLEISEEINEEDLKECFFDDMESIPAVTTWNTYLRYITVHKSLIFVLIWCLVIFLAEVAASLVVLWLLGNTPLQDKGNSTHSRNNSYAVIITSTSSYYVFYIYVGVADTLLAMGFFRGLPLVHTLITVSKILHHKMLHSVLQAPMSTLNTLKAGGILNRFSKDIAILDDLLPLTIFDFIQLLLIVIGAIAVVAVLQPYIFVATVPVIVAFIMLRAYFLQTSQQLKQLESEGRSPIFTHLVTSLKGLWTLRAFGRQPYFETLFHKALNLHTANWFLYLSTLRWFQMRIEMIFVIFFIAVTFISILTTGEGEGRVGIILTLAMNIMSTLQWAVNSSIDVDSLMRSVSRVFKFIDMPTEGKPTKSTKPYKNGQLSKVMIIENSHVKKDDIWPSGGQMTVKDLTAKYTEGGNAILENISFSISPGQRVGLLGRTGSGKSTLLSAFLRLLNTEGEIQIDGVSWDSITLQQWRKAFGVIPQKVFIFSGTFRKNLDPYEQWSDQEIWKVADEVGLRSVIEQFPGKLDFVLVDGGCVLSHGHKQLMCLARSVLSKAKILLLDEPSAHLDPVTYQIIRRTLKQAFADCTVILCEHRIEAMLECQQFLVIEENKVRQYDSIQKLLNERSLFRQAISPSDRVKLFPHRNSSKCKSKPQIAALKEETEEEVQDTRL

Regarding `COc1ccc(-c2ccnc3cc(C(=O)Nc4ccc(C(=O)N5CCOCC5)cn4)nn23)cc1OC` [Compound 135, 7-(3,4-dimethoxyphenyl)-N-(5-(morpholine-4-carbonyl)pyridin-2-yl) pyrazolo[1,5-a] pyrimidine-2-carboxamide], the EC50 in series [1] and in series [3] was below 200 nM each time. Further, the inhibition at 10 µM in series [2] (10 uM test compound), in series [5] (10 uM test compound), in series [6] (10 uM test compound) and in series [7] (10 uM test compound) was above 80% each time. Also, in series [4], the solubility at 90 min is below 0.1 µg/mL.

On to `COc1ccc(-c2ccnc3cc(C(=O)Nc4ccc(N)cc4)nn23)cc1OC` [Compound 257, N-(4-aminophenyl)-7-(3,4-dimethoxyphenyl)pyrazolo [1,5-a]pyrimidine-2-carboxamide], for which the EC50 was 200 to 2000 nM in series [1] and below 200 nM in series [3]. Moreover, the “Ratio of tear volume (test compound to vehicle)” value (from here on “Ratio of tear volume”) in series [8] came to 1.16. Further, the inhibition at 10 µM in series [2] (10 uM test compound), in series [5] (10 uM test compound), in series [6] (10 uM test compound) and in series [7] (10 uM test compound) was above 80% in each case. Further, the solubility at 90 min in series [4] was below 0.1 µg/mL.

As for `COc1ccc(-c2ccnc3cc(C(=O)NC45CCC(C(=O)N6CCN(C)CC6)(CC4)CC5)nn23)cc1OC` [Compound 151, 7-(3,4-dimethoxyphenyl)-N-(4-(4-methylpiperazine-1-carbonyl)bicyclo[2.2.2]octan-1-yl)pyrazolo[1,5-a]pyrimidine-2-carboxamide], the EC50 in series [1] was 200 to 2000 nM; in series [3] it was below 200 nM. For the same molecule, in series [8], the “Ratio of tear volume” value was determined as 1.40. The inhibition at 10 µM in series [2] (10 uM test compound), in series [5] (10 uM test compound), in series [6] (10 uM test compound) and in series [7] (10 uM test compound) was above 80% throughout. The solubility at 90 min in series [4] is above 10 µg/mL.

With `COC(=O)c1ccc(NC(=O)c2cc3nccc(-c4ccc(OC)c(F)c4)n3n2)cc1` [Compound 33, methyl 4-(7-(3-fluoro-4-methoxyphenyl)pyrazolo [1,5-a]pyrimidine-2-carboxamido)benzoate], the EC50 in series [1] is at least 2000 nM; in series [3], 200 to 2000 nM. Moreover, the inhibition at 10 µM is below 50% in series [2] (10 uM test compound), 50 to 80% in series [5] (10 uM test compound), 50 to 80% in series [6] (10 uM test compound) and 50 to 80% in series [7] (10 uM test compound). For the same molecule, the solubility at 90 min in series [4] was below 0.1 µg/mL.

In the case of `COc1ccc(-c2ccnc3cc(C(=O)Nc4ccc(C(=O)N[C@H](C(=O)N5CCOCC5)C(C)C)cc4)nn23)cc1OC` [Compound 147, (S)-7-(3,4-dimethoxyphenyl)-N-(4-((3-methyl-1-morpholino-1-oxobutan-2-yl)carbamoyl)phenyl) pyrazolo[1,5-a]pyrimidine-2-carboxamide], the EC50 in series [1] and in series [3] was below 200 nM in each case. Besides, in series [8], the “Ratio of tear volume” value worked out at 1.03. The inhibition at 10 µM in series [2] (10 uM test compound), in series [5] (10 uM test compound), in series [6] (10 uM test compound) and in series [7] (10 uM test compound) was above 80% in each case. In addition, in series [4], the solubility at 90 min was below 0.1 µg/mL.

Take `COC(=O)c1ccc(NC(=O)c2cc3nccc(-c4ccc(OC)c(OC)c4)n3n2)cc1` [Compound 11, methyl 4-(7-(3,4-dimethoxyphenyl)pyrazolo[1,5-a]pyrimidine-2-carboxamido)benzoate]: the EC50 in series [1] and in series [3] was below 200 nM each time. Also, the inhibition at 10 µM in series [2], in series [5], in series [6] and in series [7] was above 80% in each case. The solubility at 90 min in series [4] is below 0.1 µg/mL.

Turning to `COC(=O)C12CCC(NC(=O)c3cc4nccc(-c5ccc(OC)c(OC)c5)n4n3)(CC1)CC2` [Compound 144, methyl 4-(7-(3,4-dimethoxyphenyl)pyrazolo[1,5-a]pyrimidine-2-carboxamido)bicyclo[2.2.2]octane-1-carboxylate], the EC50 in series [1] and in series [3] was below 200 nM each time. Moreover, the “Ratio of tear volume” value in series [8] turned out to be 1.18. For the same molecule, the inhibition at 10 µM in series [2] (10 uM test compound), in series [5] (10 uM test compound), in series [6] (10 uM test compound) and in series [7] (10 uM test compound) was above 80% each time. The solubility at 90 min in series [4] is below 0.1 µg/mL.

As for `COc1ccc(-c2ccnc3cc(C(=O)Nc4ccc(N5CCOCC5)cn4)nn23)cc1OC` [Compound 205, 7-(3,4-dimethoxyphenyl)-N-(5-morpholinopyridin-2-yl)pyrazolo[1,5-a]pyrimidine-2-carboxamide], the EC50 in series [1] and in series [3] was below 200 nM throughout. For the same molecule, the “Ratio of tear volume” value in series [8] amounted to 1.12. In addition, the inhibition at 10 µM in series [2] (10 uM test compound), in series [5] (10 uM test compound), in series [6] (10 uM test compound) and in series [7] (10 uM test compound) was above 80% in each case.

On to `COC(=O)c1ccc(CNC(=O)c2cc3nccc(-c4ccc(OC)c(OC)c4)n3n2)cc1` [Compound 12, methyl 4-((7-(3,4-dimethoxyphenyl)pyrazolo [1,5-a]pyrimidine-2-carboxamido)methyl) benzoate], for which the EC50 in series [1] is at least 2000 nM; in series [3], 200 to 2000 nM. Further, the inhibition at 10 µM was 50 to 80% in series [2] (10 uM test compound), 50 to 80% in series [5] (10 uM test compound), above 80% in series [6] (10 uM test compound) and 50 to 80% in series [7] (10 uM test compound). Also, the solubility at 90 min in series [4] is below 0.1 µg/mL.

Turning to `COC(=O)C(=Cc1ccccc1)NC(=O)c1cc2nccc(-c3ccc(OC)c(OC)c3)n2n1` [Compound 105, methyl 2-(7-(3,4-dimethoxyphenyl)pyrazolo [1,5-a]pyrimidine-2-carboxamido) 3-phenylacrylate], the EC50 is 200 to 2000 nM in series [1] and below 200 nM in series [3]. Further, the inhibition at 10 µM in series [2] (10 uM test compound), in series [5] (10 uM test compound), in series [6] (10 uM test compound) and in series [7] (10 uM test compound) was above 80% throughout. Further, the solubility at 90 min in series [4] was below 0.1 µg/mL.

With `COc1ccc(-c2ccnc3cc(C(=O)Nc4ccc(O)cc4)nn23)cc1OC` [Compound 15, 7-(3,4-dimethoxyphenyl)-N-(4-hydroxyphenyl)pyrazolo[1,5-a]pyrimidine-2-carboxamide], the EC50 in series [1] and in series [3] was below 200 nM each time. In addition, the “Ratio of tear volume” value in series [8] is recorded as 1.29. The inhibition at 10 µM in series [2] (10 uM test compound), in series [5] (10 uM test compound), in series [6] (10 uM test compound) and in series [7] (10 uM test compound) was above 80% each time. For the same molecule, the solubility at 90 min in series [4] is below 0.1 µg/mL.
